# Results taken from patent US12459951B2, “Compounds that interact with RAS superfamily proteins for treatment of cancers, inflammatory diseases, rasopathies, and fibrotic disease” (SHY Therapeutics, LLC, priority 2022, dated 2025).
# Legend:
# [1] = tested on: Smad2/Smad3 phosphorylation; assay: Phospho-Smad2/3 Inhibition Assay (western blot), Panc-1; type: cell-based, human; conditions: at 10 μM, Panc-1 pancreatic cancer cell line; starred symbols = activation
# How it was run: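 Panc-1 cells (KRas G12D), starved overnight in 0.5% FBS, treated 3 h at 37° C with compound at 10 μM final (0.3% DMSO) or serial dilutions for IC50, then stimulated with 10 ng/ml TGF-b1 for 1 h. Phospho-Smad2 (Ser465/467) and phospho-Smad3 (Ser423/425) detected by western blot.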
# [2] = target: T1, cdc42 (Homo sapiens, UniProt P60953); assay: Cdc42 GTP Binding Domain Inhibition Assay; conditions: read-out: Cdc42: % inh.
# T1 construct: made in house
# T1 sequence (P60953 whole entry, the tested form may be a part): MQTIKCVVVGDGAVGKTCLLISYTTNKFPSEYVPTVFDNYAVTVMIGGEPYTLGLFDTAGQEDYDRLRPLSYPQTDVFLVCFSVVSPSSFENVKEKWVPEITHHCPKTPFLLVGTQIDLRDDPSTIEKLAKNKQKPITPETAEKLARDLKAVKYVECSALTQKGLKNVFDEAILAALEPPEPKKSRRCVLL
# How it was run: (§1)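 His-tagged cdc42 or Rheb (10–30 μg/mL) bound to nickel plates, then exposed to compound (20 μM, or serial dilutions for IC50) in 1% DMSO for 3 h at room temperature, ±Sos during final hour. Cy3- or Cy5-GTP (100 nM) added for 45 min; bound labelled GTP read by fluorescence after washes.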
# [3] = target: T2, Rheb (Homo sapiens, UniProt Q15382); assay: Rheb GTP Binding Domain Inhibition Assay; conditions: read-out: Rheb: % inh.
# T2 construct: made in house
# T2 sequence (Q15382 whole entry, the tested form may be a part): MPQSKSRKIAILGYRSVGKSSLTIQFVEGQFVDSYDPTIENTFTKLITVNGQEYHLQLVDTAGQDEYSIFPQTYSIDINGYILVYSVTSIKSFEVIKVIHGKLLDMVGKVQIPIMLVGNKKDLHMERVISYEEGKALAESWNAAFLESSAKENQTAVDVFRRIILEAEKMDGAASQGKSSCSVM
# How it was run: as §1
# [4] = Kinetic Solubility Assay in pH 7.4 Buffer + 2% DMSO; type: physicochemical; conditions: phosphate-buffered saline pH 7.4 with 2% DMSO, aqueous buffer, kinetic from dmso stock, 25° C., two hours
# How it was run: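 Compound from 20 mM DMSO stock diluted to nominal 400 μM in PBS pH 7.4 with 2% DMSO, in duplicate, shaken 2 h at 25° C., then filtered. Filtrate quantified by UV absorbance (230-550 nm) against 10-200 μM calibration curves; effective range ~2-400 μM.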
Structure (SMILES),% inh of Smad2/3 phosphorylation in Panc-1 [1],also measured
"COc1ncccc1Nc1nc(-c2nccn2C)nn2cc(-c3ccn(C(C)C)n3)c(C)c12 [Compound 85, 6-(1-Isopropyl-1H-pyrazol-3-yl)-N-(2-methoxypyridin-3-yl)-5-methyl-2-(1-methyl-1H-imidazol-2-yl)pyrrolo[2,1-f][1,2,4]triazin-4-amine]",D (D = 76-100% inhibition),–
"COc1nccc(Nc2nc(-c3nccn3C)nn3cc(-c4ccn(C(C)C)n4)c(C)c23)n1 [Compound 86, 6-(1-Isopropyl-1H-pyrazol-3-yl)-N-(2-methoxypyrimidin-4-yl)-5-methyl-2-(1-methyl-1H-imidazol-2-yl)pyrrolo[2,1-f][1,2,4]triazin-4-amine]",B* (B* = 26-45% activation),–
"COc1cc(Nc2nc(-c3nccn3C)nn3cc(-c4ccn(C(C)C)n4)c(C)c23)ccn1 [Compound 87, 6-(1-Isopropyl-1H-pyrazol-3-yl)-N-(2-methoxypyridin-4-yl)-5-methyl-2-(1-methyl-1H-imidazol-2-yl)pyrrolo[2,1-f][1,2,4]triazin-4-amine]",B* (B* = 26-45% activation),–
"Cc1c(-c2ccn(C(C)C)n2)cn2nc(-c3nccn3C)nc(Nc3cn(C(C)C)nn3)c12 [Compound 78, N-(1-Isopropyl-1H-1,2,3-triazol-4-yl)-6-(1-isopropyl-1H-pyrazol-3-yl)-5-methyl-2-(1-methyl-1H-imidazol-2-yl)pyrrolo[2,1-f][1,2,4]triazin-4-amine]",A (A = 1-25% inhibition),–
"COc1ncc(Nc2nc(-c3nccn3C)nn3cc(-c4ccn(C(C)C)n4)c(C)c23)cn1 [Compound 80, 6-(1-Isopropyl-1H-pyrazol-3-yl)-N-(2-methoxypyrimidin-5-yl)-5-methyl-2-(1-methyl-1H-imidazol-2-yl)pyrrolo[2,1-f][1,2,4]triazin-4-amine]",B* (B* = 26-45% activation),–
"COCCO[C@H]1C[C@H](Nc2nc(-c3nccn3C)nn3cc(-c4ccn(C(C)C)n4)c(C)c23)C1 [Compound 92, 6-(1-Isopropyl-1H-pyrazol-3-yl)-N-((1r,3r)-3-(2-methoxyethoxy)cyclobutyl)-5-methyl-2-(1-methyl-1H-imidazol-2-yl)pyrrolo[2,1-f][1,2,4]triazin-4-amine]",A* (A* = 1-25% activation),inhibition at 20 µM [2]: 1 to 25%; inhibition at 20 µM [3]: 0%
"COc1cnc(Nc2nc(-c3nccn3C)nn3cc(-c4ccn(C(C)C)n4)c(C)c23)cn1 [Compound 83, 6-(1-Isopropyl-1H-pyrazol-3-yl)-N-(5-methoxypyrazin-2-yl)-5-methyl-2-(1-methyl-1H-imidazol-2-yl)pyrrolo[2,1-f][1,2,4]triazin-4-amine]",B* (B* = 26-45% activation),–
"Cc1c(-c2ccn(C(C)C)n2)cn2nc(-c3nccn3C)nc(Nc3cnn(C(C)C)n3)c12 [Compound 77, 6-(1-Isopropyl-1H-pyrazol-3-yl)-N-(2-isopropyl-2H-1,2,3-triazol-4-yl)-5-methyl-2-(1-methyl-1H-imidazol-2-yl)pyrrolo[2,1-f][1,2,4]triazin-4-amine]",C (C = 46-75% inhibition),–
"COc1cccnc1Nc1nc(-c2nccn2C)nn2cc(-c3ccn(C(C)C)n3)c(C)c12 [Compound 89, 6-(1-Isopropyl-1H-pyrazol-3-yl)-N-(3-methoxypyridin-2-yl)-5-methyl-2-(1-methyl-1H-imidazol-2-yl)pyrrolo[2,1-f][1,2,4]triazin-4-amine]",C* (C* = 46-75% activation),–
"Cc1c(-c2ccn(C(C)C)n2)cn2nc(-c3nccn3C)nc(Nc3nnc(C4CC4)[nH]3)c12 [Compound 81, N-(5-Cyclopropyl-4H-1,2,4-triazol-3-yl)-6-(1-isopropyl-1H-pyrazol-3-yl)-5-methyl-2-(1-methyl-1H-imidazol-2-yl)pyrrolo[2,1-f][1,2,4]triazin-4-amine]",A* (A* = 1-25% activation),–
"COc1cccc(-c2cn3nc(-c4nccn4C)nc(N[C@@H]4CC[C@@H](OC)C4)c3c2-c2ccccc2)c1Cl.Cl (racemic) [Compound 34, rac 6-(2-Chloro-3-methoxyphenyl)-N-((1R,3R)-3-methoxycyclopentyl)-2-(1-methyl-1H-imidazol-2-yl)-5-phenylpyrrolo[2,1-f][1,2,4]triazin-4-amine hydrochloride]",–,inhibition at 20 µM [2]: 1 to 25%; inhibition at 20 µM [3]: 26 to 49%
"Cc1c(-c2ccn(C(C)C)n2)cn2nc(-c3nccn3C)nc(Nc3noc(C4CC4)n3)c12 [Compound 75, 5-Cyclopropyl-N-(6-(1-isopropyl-1H-pyrazol-3-yl)-5-methyl-2-(1-methyl-1H-imidazol-2-yl)pyrrolo[2,1-f][1,2,4]triazin-4-yl)-1,2,4-oxadiazol-3-amine]",A (A = 1-25% inhibition),inhibition at 20 µM [2]: 1 to 25%; inhibition at 20 µM [3]: 1 to 25%
"Cc1c(-c2ccn(C(C)C)n2)cn2nc(-c3nccn3C)nc(Nc3cc4n(n3)CCO4)c12 [Compound 91, N-(6-(1-Isopropyl-1H-pyrazol-3-yl)-5-methyl-2-(1-methyl-1H-imidazol-2-yl)pyrrolo[2,1-f][1,2,4]triazin-4-yl)-2,3-dihydropyrazolo[5,1-b]oxazol-6-amine]",0 (0 = 0% inhibition),solubility at 2 h [4]: > 30 µM
"COc1ncncc1Nc1nc(-c2nccn2C)nn2cc(-c3ccn(C(C)C)n3)c(C)c12 [Compound 88, 6-(1-Isopropyl-1H-pyrazol-3-yl)-N-(4-methoxypyrimidin-5-yl)-5-methyl-2-(1-methyl-1H-imidazol-2-yl)pyrrolo[2,1-f][1,2,4]triazin-4-amine]",C* (C* = 46-75% activation),–
"CCc1nc(Nc2nc(-c3nccn3C)nn3cc(-c4ccn(C(C)C)n4)c(C)c23)nn1C [Compound 76, N-(5-Ethyl-1-methyl-1H-1,2,4-triazol-3-yl)-6-(1-isopropyl-1H-pyrazol-3-yl)-5-methyl-2-(1-methyl-1H-imidazol-2-yl)pyrrolo[2,1-f][1,2,4]triazin-4-amine]",B (B = 26-45% inhibition),–
"Cc1c(-c2ccn(C(C)C)n2)cn2nc(-c3nccn3C)nc(Nc3ccn(C4CC4)n3)c12 [Compound 84, N-(1-Cyclopropyl-1H-pyrazol-3-yl)-6-(1-isopropyl-1H-pyrazol-3-yl)-5-methyl-2-(1-methyl-1H-imidazol-2-yl)pyrrolo[2,1-f][1,2,4]triazin-4-amine]",C* (C* = 46-75% activation),solubility at 2 h [4]: 10 to 30 µM
"Cc1c(-c2ccn(C(C)C)n2)cn2nc(-c3nccn3C)nc(Nc3ncc(C4CC4)o3)c12 [Compound 90, 5-Cyclopropyl-N-(6-(1-isopropyl-1H-pyrazol-3-yl)-5-methyl-2-(1-methyl-1H-imidazol-2-yl)pyrrolo[2,1-f][1,2,4]triazin-4-yl)oxazol-2-amine]",C* (C* = 46-75% activation),–
"COCc1csc(Nc2nc(-c3nccn3C)nn3cc(-c4ccn(C(C)C)n4)c(C)c23)n1 [Compound 79, N-(6-(1-Isopropyl-1H-pyrazol-3-yl)-5-methyl-2-(1-methyl-1H-imidazol-2-yl)pyrrolo[2,1-f][1,2,4]triazin-4-yl)-4-(methoxymethyl)thiazol-2-amine]",B* (B* = 26-45% activation),–
